Laboratory results taken from US10835533B2, “1 -((3S,4R)-4-(3-fluorophenyl)-1-(2-methoxyethyl)pyrrolidin-3-yl)-3-(4-methyl-3-(2-methylpyrimidin-5-yl)-1-phenyl-1H-pyrazol-5-yl)urea as a TrkA kinase inhibitor” (Array BioPharma Inc., priority 2014, dated 2020).

Assay: IV clearance, 1 mg/kg IV, rat
Type: in vivo
Details: for in vivo/in vitro correction factor: microsomal CLh divided by IV CL; for clearance: plasma, 1 mg/kg IV
Description: In Table 1, the predicted human IV clearance values were calculated from compound concentration-versus-time data in plasma collected from pre-clinical species (mouse, rat, dog and monkey) following 1 mg/kg intravenous (IV) doses. Concentrations of compound in plasma were measured by LC-MS (liquid chromatography-mass spectrometry). AUCinf values (Area under the plasma concentration-time curve for a dosing interval from time 0 extrapolated to infinity) for individual Cp/t curves (concentration of the drug in plasma at any time t) were determined using linear-trapezoidal integration and first order extrapolation from terminal points of the Cp/t curves, and clearance (CL) was calculated using Dose/AUCinf.
Each of Compound 1, Compound 2, and Compound 3 was formulated by adding the compound (dry) to 20% Trappsol® (hydroxypropyl Beta cyclodextrin; CDT, Inc.) (aq) pH 5.0 and vortexing until a homogeneous suspension (PO) or solution (IV) was achieved.
For intravenous dosing, animals were anesthetized with 3% isoflurane, balanced O2. 1 mg/kg of Compound 1, Compound 2, and Compound 3 was administered at a dose volume of 1 mL/kg to the lateral tail vein. Blood was drawn from the opposite lateral tail vein while the animal was under anesthesia (3% isoflurane balanced with O2, 0.2 mL/timepoint) into NaEDTA tubes (1.5% v/v) at the following time points: 1, 5, 15, 30 minutes, and 1, 2, 4, 8 and 24 hours, and mixed thoroughly.
A single 12-point calibration curve was prepared by first serially diluting (3-fold) a 40-μg/mL stock solution of Compound 1, Compound 2, and Compound 3 in DMSO to provide standard solutions. Plasma (20 μL) was then added to the extraction plate, and 2.5 μL of each standard solution was added to the naïve plasma. A stock solution of an internal standard (10.0 μL of 2.5 μg/mL in acetonitrile) subsequently was added to each standard and sample solution. Proteinaceous material was precipitated from 20 μL of plasma with the addition of 317.5 μL of acetonitrile for a total volume of 350 μL. Samples were vortex-mixed for 5 minutes and spun in an Allegra X-12R centrifuge (Beckman Coulter, Fullerton, Calif.) for 15 minutes at approximately 1,500×g at 4° C. A 100-μL aliquot of each supernatant was transferred via a 550 μL Personal Pipettor (Apricot Designs, Monrovia, Calif.) to 96-well plates and diluted 1:1 with HPLC grade water. The resulting plates were sealed with plate mats and the amount of Compound 1n the plasma was analyzed by LC-MS/MS.
The LC-MS/MS system was comprised of an HTC-PAL autosampler (Leap Technologies, Inc., Carrboro, N.C.), an HP1100 HPLC (Agilent Technologies Inc., Santa Clara, Calif.), and an API4000 triple quadrupole mass spectrometer (Applied Biosystems, Foster City, Calif.). Chromatographic retention of the analyte and internal standard was achieved using a Phenomenex® Synergi 4μ Hydro-RP 80A column (2.1×30 mm, 4 μm particle size; Phenomenex, Torrance, Calif.) in conjunction with gradient conditions using mobile phases A (10 mM ammonium acetate in aqueous 0.1% formic acid and 1% isopropyl alcohol) and B (10 mM ammonium acetate in 89.9% acetonitrile, 10% methanol, 0.1% formic acid). The total run time, including re-equilibration time, for a single injection was 3.5 minutes and the flow rate was 0.8 mL/minute. Solvent B was increased from 5 to 95% in 1.0 minute, held at 95% for 1.0 minute, and then decreased to 5% in 0.1 minute.
The total run time, including re-equilibration time, for a single injection was 3.5 minutes and the flow rate was 0.8 mL/min. Solvent B was increased from 5 to 95% in 1.0 minutes, held at 95% for 1.0 minute, and then decreased to 5% in 0.1 minute. Mass spectrometric detection of the analytes was accomplished using ESI+ ionization mode. Ion current was optimized during infusion of a stock solution of Compound 1, Compound 2, and Compound 3. Analyte responses were measured by multiple reaction monitoring (MRM) of transitions unique to each compound. […]

| in vivo/in vitro correction factor | clearance [mL/min/kg] | SMILES |
| --- | --- | --- |
| 1.47 | 15 | COCCN1C[C@@H](NC(=O)Nc2c(C)c(-c3cnc(C)nc3)nn2-c2ccccc2)[C@H](c2cccc(F)c2)C1 [Compound 1, 1-((3S,4R)-4-(3-fluorophenyl)-1-(2-methoxyethyl)pyrrolidin-3-yl)-3-(4-methyl-3-(2-methylpyrimidin-5-yl)-1-phenyl-1H-pyrazol-5-yl)urea] |
| 0.76 | 29 | COCCN1C[C@@H](NC(=O)Nc2c(C)c(-c3cnc(C)nc3)nn2-c2ccccc2)[C@H](c2ccc(F)c(F)c2)C1 [Compound 2, 1-((3S,4R)-4-(3,4-difluorophenyl)-1-(2-methoxyethyl)pyrrolidin-3-yl)-3-(4-methyl-3-(2-methylpyrimidin-5-yl)-1-phenyl-1H-pyrazol-5-yl)urea] |
| 0.88 | 26 | COCCN1C[C@@H](NC(=O)Nc2c(C)c(-c3cnn(C)c3)nn2-c2ccccc2)[C@H](c2ccc(F)cc2)C1 [Compound 3, 1-(1′,4-dimethyl-1-phenyl-1H,1′H-[3,4′-bipyrazol]-5-yl)-3-((3S,4R)-4-(4-fluorophenyl)-1-(2-methoxyethyl)pyrrolidin-3-yl)urea] |
